According to article PMC4846820, “A single active catalytic site is sufficient to promote transport in P-glycoprotein” (Scientific Reports, 2016):
pKd: −log10 of the molar value. Several values for one entry are separate records, joined by “and”; a condition that tells them apart may be missing. Equal values may be shown once. Read-outs that look alike come from different tables or passages of the source.

Tests used:
Wild-type Pgp [1] = molecular target: T1, Wild-type Pgp (Homo sapiens, UniProt P08183)
Procedure: Permeabilized cells trapped in the presence of ATP/Mg^2+ (100 μM for wild-type and 500 μM for single Walker A mutants) and 0.5 mM Vi were washed 3 times with ice-cold PBS and incubated in the presence or absence of ATP and/or substrates (verapamil, vinblastine) at 37 °C. 500 μl aliquots containing 2 × 10^5 cells were taken at regular intervals and washed twice with 5 ml PBS. […] At the end of incubations the samples were washed three times with ice-cold PBS and kept on ice until measurement in the flow cytometer.

[2] = tested on: MDCK cells expressing single Walker A mutant Pgp; experiment: Cytotoxic effect of vinblastine, AlamarBlue assay; assay type: cell-based, canine; conditions: 72 h, single mutants
Procedure: cells/well. 24 hours later vinblastine was added at different concentrations and the plates were
further incubated for 72 h at 37 °C. The cell viability was determined using the AlamarBlue
assay (Serotec, UK) measuring the 530/590 nm fluorescence intensity of the dye in an
automated microplate reader (BioTec Synergy HT, US). The fluorescence intensities of the
samples were normalized to the fluorescence of the vinblastine untreated control sample, and
plotted as a function of vinblastine concentration. The data points are means of eight parallel
samples (±SD) from a representative experiment out of three.

Wild-type Pgp [3] = molecular target: T1, Wild-type Pgp; experiment: Nucleotide trapping kinetics (BeFx or Vi), UIC2-A647 labeling; conditions: for accumulation in the trapped complex: both in WT and single Walker A mutant Pgp variants
Procedure: The transition state of Pgp was stabilized by the addition of ATP/Mg^2+ and vanadate (Vi) or BeFx at 37 °C. Permeabilized cells were incubated with 100 μM (for WT) or 500 μM (for K433M and K1076M) ATP/Mg^2+ and 0.5 mM Vi[70] or BeFx (200 μM BeSO4 and 1 mM NaF) in the presence or absence of substrates in PBS at 37 °C. 500 μl aliquots were taken at regular intervals and washed twice with 5 ml ice-cold PBS containing Vi or BeFx at the same concentrations that were applied previously during incubation. […] The UIC2-A647 fluorescence intensity of the samples (F) was plotted as a function of time (t). The t1/2 values representing the half-life of the UIC2-reactive Pgp conformation were calculated from an exponential fit of the data points according to the following equation:

[4] = molecular target: double Walker A mutant Pgp (Homo sapiens, UniProt P08183, K1076M/K433M); conditions: apical membrane, MDCK cells, 100 nM VBL-BPY
Procedure: The pattern and extent of co-localization in the sections were determined by using the cross-correlation scattergrams of the green and red pixels of the images. Co-localization indices were determined from 30–50 cells (in three independent experiments). The Pearson’s co-localization index (CI) provides a reliable estimate on the extent of fluorescence co-localization: CI values close to zero indicate no or a very low degree, while CI ≥ 0.5 reflects a high degree of co-localization, whereas the CI = 1 value would correspond to a full overlap between the two colours in each pixel of the image.

[5] = tested on: single Walker A mutant Pgps (K433M and K1076M); experiment: UIC2 mAb labeling of permeabilized cells, single mutants taken together; assay type: cell-based, human
Procedure: (§1) Permeabilized cells (1 × 10^6 ml^−1) were pre-incubated for 20 min with nucleotides added in a broad concentration range and then further incubated for 30 min with 10 μg/ml A647-conjugated UIC2 monoclonal antibody (all at 37 °C). UIC2 mAb binding to Pgp is a reversible reaction in the presence of ATP/Mg^2+ (Supplementary Fig. S6), thus, UIC2 was applied at a quasi-saturating concentration (5Kd;UIC2; Supplementary Fig. S5) and the duration of the incubation period was sufficient to reach equilibrium binding of UIC2 (Supplementary Fig. S6).
(§2) To prevent ATP hydrolysis, ATP was added to permeabilized cells without Mg^2+ in the presence of 5 mM EDTA. Alternatively, ATP was replaced by the non-hydrolysable ATP analogue AMP-PNP/Mg^2+, or the experiment was conducted on ice. […] Following antibody labeling, samples were washed 3 times with ice-cold PBS and centrifuged for 7 min at 635 g at 4 °C. The UIC2-A647 fluorescence intensity of the cells was measured by flow cytometry and plotted as a function of the nucleotide concentration.

[6] = tested on: single Walker A mutant Pgp (K433M, K1076M); experiment: Vinblastine-bodipy staining and 15D3-A647 co-localization in MDCK cells; assay type: cell-based, human; conditions: 2 mM vanadate
Procedure: Cells were plated in 8-well Ibidi μ-Slide (Ibidi GmbH, Martinsried, Germany) two days before the experiments to obtain nearly confluent cultures. The samples were pre-incubated with the following agents: Na-azide (10 mM) and 2-deoxy D-glucose (8 mM), Vi (2 mM) or NEM (50 μM) for 30 min and then further incubated with 100 nM vinblastine-bodipy (VBL-BPY) and 30 μg/ml A647-conjugated 15D3 anti-Pgp antibody for another 30 min at 37 °C.
Cellular localization of Pgp and VBL-BPY staining was studied by a three-laser confocal laser scanning microscope (Olympus FluoView 1000 confocal microscope based on an inverted IX-81 stand with an UPlansAPo 60 × NA 1.35 oil immersion objective, Hamburg, Germany). […] Fluorescence intensities were detected in the spectral ranges of 500–530 nm, 555–655 nm and 655–755 nm, respectively. To assess the co-localization of VBL-BPY (green) and Alexa 647-conjugated 15D3 (red) fluorescence signals, single optical slices of apical membrane surfaces were recorded for double-labeled cells. The pattern and extent of co-localization in the sections were determined by using the cross-correlation scattergrams of the green and red pixels of the images. Co-localization indices were determined from 30–50 cells (in three independent experiments). […]

Wild-type Pgp [7] = molecular target: T1, Wild-type Pgp; experiment: UIC2 mAb labeling of permeabilized NIH 3T3 cells: apparent affinity of nucleotide binding
Procedure: as §1, §2

Wild-type Pgp [8] = molecular target: T1, Wild-type Pgp; experiment: Recovery from the Vi-trapped post-hydrolysis state (UIC2 labeling); conditions: data not shown
K1076M Pgp = K1076M Pgp (Homo sapiens, UniProt P08183, K1076M); experiment: UIC2 mAb labeling of permeabilized cells: apparent affinity of nucleotide binding; conditions: 37 °C, Mg2+
Procedure: as §1, §2

K433M Pgp = K433M Pgp (Homo sapiens, UniProt P08183, K433M); experiment: as above; conditions: 37 °C, Mg2+
Procedure: as §1, §2

Wild-type Pgp [9] = molecular target: T1, Wild-type Pgp; experiment: VBL-BPY binding in permeabilized NIH 3T3 cells (confocal microscopy); conditions: 5 mM AMP-PNP
Procedure: Cells permeabilized by Staphylococcus alpha toxin (a) or Streptolysin O (b) were treated with different concentrations of CsA, ATP/Mg^2++ vanadate (Vi) or AMP-PNP/Mg^2+ followed by co-staining with VBL-BPY and 15D3-A647. The ratio of the VBL-BPY and 15D3-A647 fluorescence intensity was determined in pixels representing the plasma membrane, selected on the basis of 15D3-A647 fluorescence intensity exceeding the threshold of 300. Nucleotide-treated samples were compared to permeabilized ATP-depleted cells (0 mM nucleotide); the values are means ± SD of three independent experiments (***P < 0.001).

T1 sequence (P08183 whole entry): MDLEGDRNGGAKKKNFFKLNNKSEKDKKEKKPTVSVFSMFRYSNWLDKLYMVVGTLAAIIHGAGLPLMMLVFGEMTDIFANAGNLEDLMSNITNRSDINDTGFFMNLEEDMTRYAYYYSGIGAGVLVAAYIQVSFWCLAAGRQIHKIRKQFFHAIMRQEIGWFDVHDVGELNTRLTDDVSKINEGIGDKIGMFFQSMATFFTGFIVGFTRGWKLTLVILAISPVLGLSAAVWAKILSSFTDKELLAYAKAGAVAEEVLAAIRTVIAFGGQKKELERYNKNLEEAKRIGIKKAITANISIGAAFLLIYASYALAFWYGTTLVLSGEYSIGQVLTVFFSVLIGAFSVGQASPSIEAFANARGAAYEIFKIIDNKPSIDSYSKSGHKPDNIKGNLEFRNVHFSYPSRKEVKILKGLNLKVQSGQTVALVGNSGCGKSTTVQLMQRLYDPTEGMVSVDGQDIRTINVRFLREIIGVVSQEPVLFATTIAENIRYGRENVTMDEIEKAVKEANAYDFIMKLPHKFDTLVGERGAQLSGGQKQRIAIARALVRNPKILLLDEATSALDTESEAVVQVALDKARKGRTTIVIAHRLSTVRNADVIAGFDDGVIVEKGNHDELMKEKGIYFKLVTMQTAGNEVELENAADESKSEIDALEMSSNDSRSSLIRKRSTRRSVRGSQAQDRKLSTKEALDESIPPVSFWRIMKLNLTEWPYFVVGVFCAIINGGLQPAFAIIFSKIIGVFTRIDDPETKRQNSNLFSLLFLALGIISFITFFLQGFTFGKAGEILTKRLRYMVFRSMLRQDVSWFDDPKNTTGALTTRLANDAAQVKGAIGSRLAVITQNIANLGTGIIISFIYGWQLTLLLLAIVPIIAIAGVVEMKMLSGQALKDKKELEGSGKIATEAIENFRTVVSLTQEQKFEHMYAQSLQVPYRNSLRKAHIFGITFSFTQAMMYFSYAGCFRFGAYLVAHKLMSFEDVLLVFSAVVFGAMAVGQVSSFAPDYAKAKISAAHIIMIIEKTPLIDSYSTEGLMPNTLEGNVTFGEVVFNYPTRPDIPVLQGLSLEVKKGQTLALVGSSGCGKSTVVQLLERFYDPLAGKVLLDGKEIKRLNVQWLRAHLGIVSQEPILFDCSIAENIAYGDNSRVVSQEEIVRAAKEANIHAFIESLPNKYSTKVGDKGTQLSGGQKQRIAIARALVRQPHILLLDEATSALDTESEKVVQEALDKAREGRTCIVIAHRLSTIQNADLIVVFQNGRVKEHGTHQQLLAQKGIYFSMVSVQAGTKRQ
Sequence of K433M Pgp (P08183 whole entry K433M): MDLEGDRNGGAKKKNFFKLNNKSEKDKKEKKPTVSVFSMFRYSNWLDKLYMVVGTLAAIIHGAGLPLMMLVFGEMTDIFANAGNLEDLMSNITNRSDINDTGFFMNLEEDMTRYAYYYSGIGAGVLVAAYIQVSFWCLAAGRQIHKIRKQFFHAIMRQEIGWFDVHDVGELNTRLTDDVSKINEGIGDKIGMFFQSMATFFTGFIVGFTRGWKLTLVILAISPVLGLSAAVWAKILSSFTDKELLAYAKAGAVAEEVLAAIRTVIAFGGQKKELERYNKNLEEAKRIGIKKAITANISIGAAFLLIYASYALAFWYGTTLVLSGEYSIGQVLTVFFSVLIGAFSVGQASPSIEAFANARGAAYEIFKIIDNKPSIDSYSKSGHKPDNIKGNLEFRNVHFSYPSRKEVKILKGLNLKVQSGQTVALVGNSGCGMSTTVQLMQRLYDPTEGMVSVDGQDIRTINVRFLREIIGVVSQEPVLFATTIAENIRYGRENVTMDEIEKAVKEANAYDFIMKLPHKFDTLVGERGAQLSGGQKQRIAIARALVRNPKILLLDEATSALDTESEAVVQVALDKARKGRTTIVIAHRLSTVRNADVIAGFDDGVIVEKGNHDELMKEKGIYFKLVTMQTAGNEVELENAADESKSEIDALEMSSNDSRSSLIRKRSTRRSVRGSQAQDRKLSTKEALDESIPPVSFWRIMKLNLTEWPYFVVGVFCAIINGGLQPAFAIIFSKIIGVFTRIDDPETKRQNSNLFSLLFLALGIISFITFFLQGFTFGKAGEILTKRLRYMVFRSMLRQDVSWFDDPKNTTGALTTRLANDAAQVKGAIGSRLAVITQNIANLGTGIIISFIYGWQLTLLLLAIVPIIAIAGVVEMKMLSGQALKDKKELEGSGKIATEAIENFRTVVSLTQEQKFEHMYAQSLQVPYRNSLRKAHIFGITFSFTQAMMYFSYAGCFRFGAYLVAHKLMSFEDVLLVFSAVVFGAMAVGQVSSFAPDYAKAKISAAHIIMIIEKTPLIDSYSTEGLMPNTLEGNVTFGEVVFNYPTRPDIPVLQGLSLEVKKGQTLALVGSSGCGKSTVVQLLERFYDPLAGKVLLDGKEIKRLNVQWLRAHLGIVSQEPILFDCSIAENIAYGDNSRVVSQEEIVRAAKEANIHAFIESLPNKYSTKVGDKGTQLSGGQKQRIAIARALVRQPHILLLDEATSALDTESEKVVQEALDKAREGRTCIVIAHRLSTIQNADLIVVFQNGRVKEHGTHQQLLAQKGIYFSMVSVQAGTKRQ
Sequence of K1076M Pgp (P08183 whole entry K1076M): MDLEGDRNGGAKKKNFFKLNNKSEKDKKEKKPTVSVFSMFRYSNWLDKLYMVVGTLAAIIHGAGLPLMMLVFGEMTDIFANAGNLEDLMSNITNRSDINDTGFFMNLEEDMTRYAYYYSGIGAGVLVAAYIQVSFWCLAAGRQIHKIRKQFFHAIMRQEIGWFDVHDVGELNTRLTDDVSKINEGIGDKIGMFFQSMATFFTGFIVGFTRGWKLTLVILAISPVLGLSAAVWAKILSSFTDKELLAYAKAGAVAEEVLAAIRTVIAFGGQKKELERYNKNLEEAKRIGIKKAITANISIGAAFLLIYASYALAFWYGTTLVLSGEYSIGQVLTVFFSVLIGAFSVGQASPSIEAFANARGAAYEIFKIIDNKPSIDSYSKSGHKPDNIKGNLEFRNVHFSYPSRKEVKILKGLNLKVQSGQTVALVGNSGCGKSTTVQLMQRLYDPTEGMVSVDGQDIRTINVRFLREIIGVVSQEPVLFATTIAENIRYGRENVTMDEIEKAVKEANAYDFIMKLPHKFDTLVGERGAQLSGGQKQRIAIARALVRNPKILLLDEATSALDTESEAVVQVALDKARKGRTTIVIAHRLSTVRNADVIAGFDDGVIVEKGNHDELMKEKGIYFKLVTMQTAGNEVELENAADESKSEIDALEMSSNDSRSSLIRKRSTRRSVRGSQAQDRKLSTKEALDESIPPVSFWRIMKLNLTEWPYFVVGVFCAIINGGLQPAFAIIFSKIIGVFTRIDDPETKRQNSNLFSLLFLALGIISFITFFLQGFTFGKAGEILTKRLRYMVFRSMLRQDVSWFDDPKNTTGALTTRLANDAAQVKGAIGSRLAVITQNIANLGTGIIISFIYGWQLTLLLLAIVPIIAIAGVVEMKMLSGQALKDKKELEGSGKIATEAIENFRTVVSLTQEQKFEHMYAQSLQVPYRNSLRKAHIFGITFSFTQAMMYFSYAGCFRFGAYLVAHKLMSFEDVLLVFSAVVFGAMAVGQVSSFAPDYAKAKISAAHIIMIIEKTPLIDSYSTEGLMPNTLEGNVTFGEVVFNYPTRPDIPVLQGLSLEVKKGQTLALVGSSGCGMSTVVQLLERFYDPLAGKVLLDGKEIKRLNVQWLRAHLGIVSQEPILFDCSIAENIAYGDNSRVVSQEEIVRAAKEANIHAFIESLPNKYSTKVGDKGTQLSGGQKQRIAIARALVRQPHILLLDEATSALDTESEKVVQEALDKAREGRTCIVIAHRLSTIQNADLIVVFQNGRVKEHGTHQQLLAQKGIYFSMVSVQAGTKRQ
Sequence of double Walker A mutant Pgp (P08183 whole entry K433M/K1076M): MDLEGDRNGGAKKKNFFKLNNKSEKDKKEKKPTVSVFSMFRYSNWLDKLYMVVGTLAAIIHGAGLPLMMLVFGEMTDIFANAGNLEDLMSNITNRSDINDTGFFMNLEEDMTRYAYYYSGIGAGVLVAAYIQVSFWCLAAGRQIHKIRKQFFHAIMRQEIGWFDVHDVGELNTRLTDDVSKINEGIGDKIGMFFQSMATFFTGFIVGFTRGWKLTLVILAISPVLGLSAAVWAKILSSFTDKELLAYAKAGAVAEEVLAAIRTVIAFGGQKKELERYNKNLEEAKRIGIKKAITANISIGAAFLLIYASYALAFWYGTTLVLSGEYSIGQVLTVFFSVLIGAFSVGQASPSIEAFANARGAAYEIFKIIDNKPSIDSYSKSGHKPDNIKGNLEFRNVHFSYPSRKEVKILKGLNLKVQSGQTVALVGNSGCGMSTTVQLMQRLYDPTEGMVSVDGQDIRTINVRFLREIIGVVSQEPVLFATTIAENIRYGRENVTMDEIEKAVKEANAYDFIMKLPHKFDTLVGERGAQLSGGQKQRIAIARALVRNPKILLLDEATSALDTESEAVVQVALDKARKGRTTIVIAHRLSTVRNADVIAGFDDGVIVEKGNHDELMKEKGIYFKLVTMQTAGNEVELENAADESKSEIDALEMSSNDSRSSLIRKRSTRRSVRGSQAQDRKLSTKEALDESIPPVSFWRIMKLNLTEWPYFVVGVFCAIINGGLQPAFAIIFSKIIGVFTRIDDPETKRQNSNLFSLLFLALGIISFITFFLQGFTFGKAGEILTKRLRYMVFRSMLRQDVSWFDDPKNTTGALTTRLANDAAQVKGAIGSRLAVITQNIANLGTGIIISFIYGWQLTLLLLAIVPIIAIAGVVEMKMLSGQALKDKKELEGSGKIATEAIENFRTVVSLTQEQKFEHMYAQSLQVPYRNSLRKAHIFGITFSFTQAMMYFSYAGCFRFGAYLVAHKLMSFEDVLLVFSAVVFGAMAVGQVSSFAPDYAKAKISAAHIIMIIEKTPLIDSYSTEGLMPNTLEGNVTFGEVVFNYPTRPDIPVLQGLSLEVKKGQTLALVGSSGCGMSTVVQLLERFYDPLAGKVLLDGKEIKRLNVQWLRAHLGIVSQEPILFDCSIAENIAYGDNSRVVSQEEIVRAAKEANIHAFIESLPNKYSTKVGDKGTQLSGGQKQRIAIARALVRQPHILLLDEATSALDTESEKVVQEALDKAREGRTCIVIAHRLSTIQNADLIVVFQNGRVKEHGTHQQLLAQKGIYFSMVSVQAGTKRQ

CC[C@]1(O)C[C@@H]2CN(CCc3c([nH]c4ccccc34)[C@@](C(=O)OC)(c3cc4c(cc3OC)N(C)[C@H]3[C@@](O)(C(=O)OC)[C@H](OC(C)=O)[C@]5(CC)C=CCN6CC[C@]43[C@@H]65)C2)C1 [vinblastine]
effect on release of the tightly bound nucleotide from the Vi-trapped complex (Wild-type Pgp [1]): not influenced
resistance against the cytotoxic effect of vinblastine [2]: conferred resistance
accumulation in the trapped complex (Wild-type Pgp [3]): accelerated
apparent affinity for ATP in the presence of substrate (Wild-type Pgp [3]; up to 200 μM vinblastine, BeFx, 20 min, 37 °C): did not change

CCC1(O)CC2CN(CCc3c([nH]c4ccccc34)C(C(=O)OC)(c3cc4c(cc3OC)N(C)C3C(O)(C(=O)OC)C(OC(=O)CCC5=[N+]6C(=Cc7c(C)cc(C)n7[B-]6(F)F)C=C5)C5(CC)C=CCN6CCC43C65)C2)C1 (stereo not drawn) [VBL-BPY, BODIPY FL vinblastine]
Pearson's cross-correlation coefficient between VBL-BPY and 15D3 anti-Pgp antibody signals [4]: ~ 0.8

[O]=[V]([O-])([O-])[O-] [Vi, orthovanadate]
increase in the apparent affinity of the single mutants to ATP on addition of vanadate ([5]; ATP/Mg2+, 37 °C): 5–10 fold
effect on VBL-BPY binding to single Walker A mutants [6]: fully suppressed
t1/2 of Vi trapping (Wild-type Pgp [3]; n = 6, Pgp variant not given): 3.92 ± 0.87 min
effect of Vi on apparent affinity (Wild-type Pgp [7]; ATP hydrolysis prevented (Fig. 1b-d)): not influenced at all
effect of vanadate on apparent affinity (Wild-type Pgp [7]; hydrolysis conditions: 37 °C, ATP/Mg2+): increased the apparent affinity

COC(=O)c1ccccc1-c1c2ccc(=N)cc-2oc2cc(N)ccc12 [rhodamine 123]
accumulation in the trapped complex (Wild-type Pgp [3]): accelerated

Nc1ncnc2c1ncn2[C@@H]1O[C@H](COP(=O)(O)OP(=O)(O)OP(=O)(O)O)[C@@H](O)[C@H]1O [ATP]
effect on release of the tightly bound nucleotide from the Vi-trapped complex (Wild-type Pgp [8]): not influenced
Hill slope (K1076M Pgp): 0.89 ± 0.33
KA (apparent nucleotide affinity) for competing UIC2 labeling (K1076M Pgp): 2.03 ± 0.91 mM
fraction of UIC2 label persisting in saturating ATP ([5]; 10 μg/ml UIC2): ~ 50%
KA (apparent affinity for competing UIC2 labeling) ([5]; at [UIC2] about 5Kd;UIC2): ~2.5 mM
pKd ([5]; estimated with Eq. 7 of the kinetic model, read-out: Kd;ATP, dissociation constant of ATP from inward-facing Pgp): ~2.30
Km ([5]; from Eq. 3 of the kinetic model, read-out: predicted KM for ATP-hydrolysis and substrate transport in the absence of UIC2): ~700 µM
decrease in apparent affinity for ATP of the single mutants ([5]; relative to WT): ~ 10 fold
Hill slope (K433M Pgp): 0.90 ± 0.32
KA (apparent nucleotide affinity) for competing UIC2 labeling (K433M Pgp): 2.08 ± 1.04 mM
Hill slope (Wild-type Pgp [7]; 4 °C, Mg2+): 0.66 ± 0.17
KA (apparent nucleotide affinity) for competing UIC2 labeling (Wild-type Pgp [7]; 4 °C, Mg2+): 2.70 ± 1.83 mM
Hill slope (Wild-type Pgp [7]; 37 °C, Mg2+): 0.77 ± 0.20
KA (apparent nucleotide affinity) for competing UIC2 labeling (Wild-type Pgp [7]; 37 °C, Mg2+, 10 μg/ml UIC2): 0.25 ± 0.16 mM and 0.25 mM
Hill slope (Wild-type Pgp [7]; 37 °C, no Mg2+): 1.60 ± 0.22
KA (apparent nucleotide affinity) for competing UIC2 labeling (Wild-type Pgp [7]; 37 °C, no Mg2+): 1.92 ± 0.33 mM
pKd (Wild-type Pgp [7]; read-out: Kd;ATP, dissociation constant of ATP from inward-facing Pgp, estimated with Eq. 7 of the kinetic model from KA and T2/T1;min): ~3.15
Km (Wild-type Pgp [7]; read-out: predicted KM for ATP-hydrolysis and substrate transport in the absence of UIC2, from Eq. 3 of the kinetic model): ~60 µM

Nc1ncnc2c1ncn2[C@@H]1O[C@H](COP(=O)(O)OP(=O)(O)NP(=O)(O)O)[C@@H](O)[C@H]1O [AMP-PNP]
co-localization of VBL-BPY and Pgp (Wild-type Pgp [9]): significant decrease
Hill slope (K1076M Pgp): 1.68 ± 0.23
KA (apparent nucleotide affinity) for competing UIC2 labeling (K1076M Pgp): 3.01 ± 0.92 mM
Hill slope (K433M Pgp): 2.06 ± 0.29
KA (apparent nucleotide affinity) for competing UIC2 labeling (K433M Pgp): 3.40 ± 1.42 mM
Hill slope (Wild-type Pgp [7]; 37 °C, Mg2+): 1.75 ± 0.34
KA (apparent nucleotide affinity) for competing UIC2 labeling (Wild-type Pgp [7]; 37 °C, Mg2+, 10 μg/ml UIC2): 0.27 ± 0.14 mM
